Read-outs that look alike come from different tables or passages of the source.
Columns and labels:
PLK4 = PLK4 (Homo sapiens (Human), UniProt O00444); assay: PLK4 kinase activity in vitro, 33P isotope-labeled kinase activity test; format: biochemical; settings: 33P-ATP 10 μM, PLK4 150 nM
Procedure: (§1) The ^33P isotope-labeled kinase activity test (Reaction Biology Corp) was used to determine the IC50 value to evaluate the inhibitory ability of the test compound to the human PLK family protein kinase PLK2/PLK3/PLK4.
(§2) Buffer conditions: 20 mM HEPES (pH 7.5), 10 mM MgC2, 1 mM EGTA, 0.01% Brij35, 0.02 mg/ml BSA, 0.1 mM Na3VO4, 2 mM DTT, 1% DMSO.
(§3) Test steps: At room temperature, the compounds to be tested were dissolved in DMSO to prepare a 10 mM solution for use. The substrate Casein was dissolved in the freshly prepared buffer (with a final concentration of 20 μM), and the tested PLK2/PLK3/PLK4 kinases (with a final concentration of 15/10/150 nM, respectively) were added thereto and mixed well. The acoustic wave pipetting system Echo 550 was used to add the mother solution of the test compound dissolved in DMSO to the above mixed reaction mixture according to the set final concentration gradient (the highest final concentration was 1 μM, 3-fold dilution, 10 gradients). After incubation at room temperature for 20 minutes, ^33P-ATP (with a final concentration of 30/50/10 μM, respectively) was added, then after incubation at room temperature for 120 minutes, the reaction mixture was spotted on P81 ion exchange filter paper (Whatman #3698-915).

PLK2 = PLK2 (Homo sapiens (Human), UniProt Q9NYY3); assay: PLK2 kinase activity in vitro, 33P isotope-labeled kinase activity test; format: biochemical; settings: 33P-ATP 30 μM, PLK2 15 nM
Procedure: as §1, §2, §3

[1] = Pharmacokinetic study in CD-1 male mice by oral administration and intravenous injection; format: in vivo; settings: mouse, plasma; for AUC(0-t): read-out: Area under the plasma concentration-time curve AUC0-24 h
From the text: The purpose of this experiment is to study the pharmacokinetics of the test compound in the plasma of CD-1 male mice after intravenous injection and oral administration.
Intravenous injection group: an appropriate amount of the test compound was weighed and dissolved in 20% SBE-b-CD aqueous solution and the pH was adjusted to 4 to 5 with 6 M hydrochloric acid, and the mixture was vortexed for 2, minutes to obtain a clear solution, and then pH was adjusted around 7 with 5 N sodium hydroxide, and the mixture was vortexed for 1 minute to prepare a 1.5 mg/mL clear solution, which was filtered through a 0.22 μm microporous membrane for later use. CD-1 male mice from 6 to 10 weeks old were selected and given a solution of the test compound intravenously. Samples were collected at 0.083, 0.25, 0.5, 1, 2, 4, 6, 8, and 24 hours.
Oral administration group: an appropriate amount of the test compound was weighed and dissolved in 20% SBE-b-CD aqueous solution, and the pH was adjusted to 3 to 4 with 6 M hydrochloric acid, and the mixture was vortexed for 2, minutes to obtain a clear solution, and then pH was adjusted around 7 with 5 N sodium hydroxide, and mixture was vortexed for 1 minute to prepare a 2.0 mg/mL clear solution for later use. CD-1 male mice between 6 and 10 weeks of age were selected and given the test compounds orally. Samples were collected at 0.25, 0.5, 1, 2, 4, 6, 8, 10, and 24 hours.
Approximately 50 μL of whole blood was collected through the jugular vein at each time point for plasma preparation for concentration determination by high performance liquid chromatography-tandem mass spectrometry (LC-MS/MS). All animals were euthanized under CO2 anesthesia after collecting the PK samples at the last time point. The plasma concentration was processed using the non-compartmental model of WinNonlin™ Version 6.3 (Pharsight, Mountain View, CA) pharmacokinetic software, and the pharmacokinetic parameters were calculated using the linear logarithmic trapezoidal method, and the experimental results are shown in Table 4.

HCT116 cells = assay: HCT116 cytological activity in vitro (3D CellTiter-Glo proliferation); format: cell-based, human; settings: Homo sapiens, HCT-116, 120 h, 5 days culture, ultra-low adsorption plates
Procedure: McCoy's 5A medium, penicillin/streptomycin antibiotics was purchased from Vicente, and fetal bovine serum was purchased from Biosera. 3D CellTiter-Glo (cell viability chemiluminescence assay reagent) reagent was purchased from Promega. HCT116 cell line was purchased from Nanjing Cobioer Biosciences Co., Ltd. Envision multimode microplate reader (PerkinElmer).
HCT116 cells were seeded in ultra-low adsorption 96-well U-plates, 80 μL of cell suspension per well, which contained 1000 HCT116 cells. Cell plates were cultured overnight in a carbon dioxide incubator.
The compound to be tested was 5-fold diluted to the 9th concentration with a pipette, that is, diluted from 2 mM to 5.12 nM, and a double-well experiment was set up. 78 μL of medium was added to the intermediate plate, and then 2 μL of each well of the gradient diluted compound was transferred to the intermediate plate according to the corresponding position, 20 μL of each well was transferred to the cell plate after mixing well. Compound concentrations transferred to cell plates ranged from 10 μM to 0.0256 nM. Cell plates were cultured in a carbon dioxide incubator for 5 days. Another cell plate was prepared, and the signal value was read as the maximum value (Max value in the following equation) on the day of drug addition to participate in data analysis.
Every 100 μL of cell viability chemiluminescent detection reagent was added to the cell plate, and incubated at room temperature for 10 minutes to stabilize the luminescent signal. A multimode microplate reader was used to read.
The equation (Sample−Min)/(Max−Min)*100% was used to convert the original data into an inhibition rate, and the value of IC50 can be obtained by curve fitting with four parameters (“log(inhibitor) vs. response in GraphPad Prism—Variable slope” mode). Table 3 provides the inhibitory activity of the compounds of the present disclosure against the proliferation of HCT116 cells.

PLK3 = PLK3 (Homo sapiens (Human), UniProt Q9H4B4); assay: PLK3 kinase activity in vitro, 33P isotope-labeled kinase activity test; format: biochemical; settings: 33P-ATP 50 μM, PLK3 10 nM
Procedure: as §1, §2, §3

[2] = tested on: human colon cancer HCT116 cells subcutaneous xenograft tumor; assay: In vivo pharmacodynamic study, subcutaneous xenograft tumor model of human colon cancer HCT116 cells; design: species or system BALB/c Nude mouse; settings: tumor volume on day 22 after dosing
Procedure: In this experiment, human colon cancer HCT116 cells were subcutaneously transplanted into BALB/c Nude mouse model to evaluate the antitumor effect of the test compound in vivo.
HCT116 cell culture: 10% fetal calf serum was added to McCoy's 5A medium and cultured in 37° C. 5% CO2 cell incubator. When the cell saturation reached 80% to 90% and the number reached the requirement, cells were collected, counted and inoculated subcutaneously into BALB/c Nude mice (female, 6 to 7 weeks old)
When the tumors grew to a certain size, the animals with tumor volumes that were too large, too small, or with irregular tumor shapes were eliminated, and animals with tumor volumes ranging from 103.12 to 174.35 mm^3 were selected. According to the tumor volume, the animals were divided into 6 groups by random block method, and each group was composed of 6 mice wherein the average volume of the tumor was about 147.12 mm^3 , and the experimental grouping and dosing regimen were shown in Table 5 below. The health status and death of the animals were monitored every day. Routine inspections included observation of tumor growth and the effects of drug treatment on the daily behavior of the animals, such as behavioral activities, food and water intake, body weight changes (measured twice a week), tumor size (tumor volume was measured twice a week), appearance signs or other abnormal conditions.
The formula for calculating tumor volume (TV) was: ½×a×b^2, where a and b were the measured length and width of the tumor, respectively. The formula for calculating the tumor inhibition rate TGI (%) was: TGI (%)=[1−(average tumor volume at the end of administration of a certain treatment group−average tumor volume at the beginning of administration of this treatment group)/(average tumor volume at the end of treatment of the solvent control group−average tumor volume at the beginning of treatment in solvent control group)]×100%.
In this study, the experimental data were expressed as Mean±SEM. Statistical analysis was based on the data of RTV at the end of the experiment using IBM SPSS Statistics software. The comparison between two groups was analyzed by T test, and the comparison between three or more groups was analyzed by one-way ANOVA. If the variances were homogeneous (the F value had no significant difference), the Tukey's method was used for analysis. If the variances were not homogeneous (the F value had significant differences), and the Games-Howell method was used for testing. p<0.05 was considered as a significant difference.

PLK4, sequence (O00444 whole entry): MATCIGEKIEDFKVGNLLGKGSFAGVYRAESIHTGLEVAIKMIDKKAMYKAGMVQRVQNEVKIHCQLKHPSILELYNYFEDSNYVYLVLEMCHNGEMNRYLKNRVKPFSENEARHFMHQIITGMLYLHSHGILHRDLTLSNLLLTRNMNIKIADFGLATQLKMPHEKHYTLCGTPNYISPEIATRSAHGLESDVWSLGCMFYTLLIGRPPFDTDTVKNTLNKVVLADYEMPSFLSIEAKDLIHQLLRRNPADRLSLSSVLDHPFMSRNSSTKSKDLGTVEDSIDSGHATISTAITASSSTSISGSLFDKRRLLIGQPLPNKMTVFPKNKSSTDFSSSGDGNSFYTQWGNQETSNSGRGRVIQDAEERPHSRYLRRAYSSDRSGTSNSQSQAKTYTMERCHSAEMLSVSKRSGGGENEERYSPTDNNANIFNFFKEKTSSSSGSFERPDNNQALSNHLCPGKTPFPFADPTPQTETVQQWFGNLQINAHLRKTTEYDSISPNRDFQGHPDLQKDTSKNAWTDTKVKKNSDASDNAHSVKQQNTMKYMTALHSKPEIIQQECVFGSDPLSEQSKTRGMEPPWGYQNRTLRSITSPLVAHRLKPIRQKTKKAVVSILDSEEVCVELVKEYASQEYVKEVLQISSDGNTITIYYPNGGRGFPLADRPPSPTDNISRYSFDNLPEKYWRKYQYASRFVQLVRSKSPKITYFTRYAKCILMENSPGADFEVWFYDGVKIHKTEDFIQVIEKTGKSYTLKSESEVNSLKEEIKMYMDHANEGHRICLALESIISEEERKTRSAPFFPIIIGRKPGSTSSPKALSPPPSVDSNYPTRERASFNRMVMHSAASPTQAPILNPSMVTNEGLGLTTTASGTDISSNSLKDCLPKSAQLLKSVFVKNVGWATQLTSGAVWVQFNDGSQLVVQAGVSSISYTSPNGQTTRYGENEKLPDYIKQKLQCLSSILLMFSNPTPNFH
PLK3, sequence (Q9H4B4 whole entry): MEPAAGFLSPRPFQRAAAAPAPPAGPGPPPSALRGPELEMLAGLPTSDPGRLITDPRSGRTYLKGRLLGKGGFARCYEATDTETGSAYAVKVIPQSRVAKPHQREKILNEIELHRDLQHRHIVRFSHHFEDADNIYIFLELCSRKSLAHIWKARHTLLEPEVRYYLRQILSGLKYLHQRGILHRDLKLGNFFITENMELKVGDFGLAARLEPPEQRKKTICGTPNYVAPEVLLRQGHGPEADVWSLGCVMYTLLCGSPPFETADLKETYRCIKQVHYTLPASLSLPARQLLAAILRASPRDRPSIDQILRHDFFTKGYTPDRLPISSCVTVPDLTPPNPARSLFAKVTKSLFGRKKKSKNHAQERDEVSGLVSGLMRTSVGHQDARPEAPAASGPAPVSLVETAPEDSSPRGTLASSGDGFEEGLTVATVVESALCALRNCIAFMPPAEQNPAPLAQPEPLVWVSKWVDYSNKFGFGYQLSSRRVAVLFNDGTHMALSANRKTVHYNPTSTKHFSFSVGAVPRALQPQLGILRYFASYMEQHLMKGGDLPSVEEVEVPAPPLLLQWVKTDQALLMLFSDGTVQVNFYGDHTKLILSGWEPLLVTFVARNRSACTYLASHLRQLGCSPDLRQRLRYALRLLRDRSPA
PLK2, sequence (Q9NYY3 whole entry): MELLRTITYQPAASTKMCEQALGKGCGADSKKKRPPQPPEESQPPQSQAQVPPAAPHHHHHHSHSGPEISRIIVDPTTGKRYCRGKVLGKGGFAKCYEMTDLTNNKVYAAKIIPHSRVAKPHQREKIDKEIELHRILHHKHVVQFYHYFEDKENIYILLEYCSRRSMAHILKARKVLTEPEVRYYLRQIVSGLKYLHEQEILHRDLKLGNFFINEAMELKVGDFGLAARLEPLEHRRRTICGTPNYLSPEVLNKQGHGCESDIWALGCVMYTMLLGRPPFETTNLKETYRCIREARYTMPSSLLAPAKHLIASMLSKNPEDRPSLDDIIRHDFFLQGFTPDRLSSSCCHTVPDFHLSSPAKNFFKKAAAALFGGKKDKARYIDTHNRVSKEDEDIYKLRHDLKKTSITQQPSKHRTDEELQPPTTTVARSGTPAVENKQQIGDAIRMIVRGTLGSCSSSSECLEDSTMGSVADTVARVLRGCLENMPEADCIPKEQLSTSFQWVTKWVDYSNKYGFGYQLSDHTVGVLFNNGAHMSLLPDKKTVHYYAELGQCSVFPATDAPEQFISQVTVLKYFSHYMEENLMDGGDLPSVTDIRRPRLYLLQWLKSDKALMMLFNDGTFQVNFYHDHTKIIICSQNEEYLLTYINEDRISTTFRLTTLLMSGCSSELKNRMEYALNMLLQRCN

IC50 (PLK4): > 10 µM
IC50 (PLK2): > 10 µM
Vd ([1]; IV, 0.5 mg/kg, read-out: Apparent volume of distribution Vdss): 3.37 L/kg
AUC(0-t) ([1]; IV, 0.5 mg/kg): 410 nM·h
clearance ([1]; IV, 0.5 mg/kg, read-out: Clearance CL): 2.27 L/h/kg
half-life ([1]; IV, 0.5 mg/kg, read-out: Half-life T½ (converted)): 1.47 h
AUC(0-t) ([1]; PO, 2.0 mg/kg): 1050 nM·h
Cmax ([1]; PO, 2.0 mg/kg, read-out: Peak concentration Cmax): 0.386 µM
Tmax ([1]; PO, 2.0 mg/kg, read-out: Peak time Tmax): 0.75 h
bioavailability ([1]; PO 2.0 mg/kg vs IV 0.5 mg/kg, read-out: Bioavailability F): 66.4%
IC50 (HCT116 cells): 0.027 µM
IC50 (PLK3): > 10 µM
SMILES: CSc1sc(C(N)=O)c2c1-c1nc(Nc3cc(N4CCN(C)CC4)ccc3OC(F)(F)F)ncc1CC2 [Compound 1]
TGI ([2]; 30 mg/kg PO QD (5 days on, 2 days off)): 72.9%
TGI ([2]; 45 mg/kg PO QD (5 days on, 2 days off)): 87.3%

From patent US20240140962A1, “5,6-DIHYDROTHIENO[3,4-H]QUINAZOLINE COMPOUND” (MEDSHINE DISCOVERY INC., priority 2021, published 2024)
